{"source": "patent US20250250278A2", "about": "“BRIARANE COMPOUNDS AND THEIR USE” (National Health Research Institutes, priority 2022, published 2025)", "origin": "cited, not measured here", "key": {"[1]": {"tested_on": "inducible nitric oxide synthase (iNOS) mRNA", "details": "LPS-challenged murine macrophages"}, "[2]": {"experiment": "not given", "remark": "listed apart in the source"}, "[3]": {"tested_on": "cyclooxygenase-2 (COX-2) mRNA", "details": "LPS-challenged murine macrophages"}}}
{"substance": "excavatolide B [ExcB]", "values": [{"measurement": "inhibition of mRNA expression of iNOS", "setting": "[1]", "result": "significantly inhibiting"}, {"measurement": "solubility in water", "result": "poor"}, {"measurement": "bioavailability", "setting": "[2]", "result": "low"}, {"measurement": "inhibition of mRNA expression of COX-2", "setting": "[3]", "result": "significantly inhibiting"}]}
